Values of other authors in patent US8808722B2, “Stable antiseptic compositions and methods” (3M Innovative Properties Company, priority 2010, dated 2014).

Conditions: at 25° C.

Compound: II [elemental iodine, iodine]
- solubility in water: 0.03 wt-%
